# Measurements from patent US8377974B2 (Millennium Pharmaceuticals, Inc., priority 2004, dated 2013).
# Biological target: T1, human plasma protein factor Xa (Homo sapiens, UniProt P00742)
# T1 construct: measure proteolytic activity of the enzyme (factor Xa); purchased Haematologic Technologies (Essex Junction, Vt.); host or cells: human plasma
# Assay: Factor Xa IC50 determination: cleavage of paranitroanilide substrate S-2765 in 96-well plates
# Format: biochemical
# Conditions: fXa 1 nM, S-2765 100 μM, Tris buffered saline pH 7.4, room temperature
# Summary of the method: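 Human plasma factor Xa (1 nM) preincubated 5 min at room temperature with inhibitor (0.01 nM–10 μM final) in Tris-buffered saline pH 7.4 with 5 mM CaCl2, 0.1% BSA, 5% DMSO. S-2765 at 100 μM final; hydrolysis at 405 nm over 2 min. IC50 from 4-parameter fit of initial velocities.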
# T1 sequence (P00742 235-488 limits assumed): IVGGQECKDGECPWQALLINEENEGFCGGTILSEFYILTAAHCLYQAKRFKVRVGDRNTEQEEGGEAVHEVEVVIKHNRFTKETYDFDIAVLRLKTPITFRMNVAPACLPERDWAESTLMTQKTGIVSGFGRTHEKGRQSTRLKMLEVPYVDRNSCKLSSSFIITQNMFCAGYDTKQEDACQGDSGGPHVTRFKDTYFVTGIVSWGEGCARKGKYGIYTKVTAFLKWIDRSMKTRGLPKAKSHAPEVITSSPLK
# T1 sequence (P00742 41-179 partner limits assumed): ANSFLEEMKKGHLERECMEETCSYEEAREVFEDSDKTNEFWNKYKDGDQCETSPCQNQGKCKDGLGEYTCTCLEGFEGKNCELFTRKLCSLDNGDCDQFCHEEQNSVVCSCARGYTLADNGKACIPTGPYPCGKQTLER
row,Structure (SMILES),IC50
1,"CN1CCN(c2ccc(-n3cc(CNC(=O)c4ccc(Cl)s4)nn3)cn2)CC1 [Example 391, 5-Chloro-N-((1-(6-(4-methylpiperazin-1-yl)pyridin-3-yl)-1H-1,2,3-triazol-4-yl)methyl)thiophene-2-carboxamide]",100 to 500 nM
2,"O=C(NCc1cc(-c2ccc(-c3cccc(CN4CCCC4)c3)cc2)no1)c1ccc(Cl)s1 [Example 212, 5-Chloro-thiophene-2-carboxylic acid [3-(3′-pyrrolidin-1-ylmethyl-biphenyl-4-yl)-isoxazol-5-ylmethyl]-amide]",≥ 500 nM
3,"CN(Cc1cc(-c2ccc(C(=N)N3CCC3)cc2)no1)C(=O)c1ccc(Cl)s1 [Example 40, 5-Chloro-thiophene-2-carboxylic acid {3-[4-(azetidin-1-yl-imino-methyl)-phenyl]-isoxazol-5-ylmethyl}-methyl-amide]",≥ 500 nM
4,"O=C(NCC1CC(c2ccc(Nc3ccc4ncccc4c3)cc2)=NO1)c1ccc(Cl)s1 (stereo not drawn) [Example 396, 5-Chloro-N-((3-(4-(quinolin-6-ylamino)phenyl)-4,5-dihydroisoxazol-5-yl)methyl)thiophene-2-carboxamide]",≥ 500 nM
5,"COCCN(C)C(=N)c1ccc(-c2cc(CN(C)C(=O)c3ccc(Cl)s3)on2)cc1 [Example 46, 5-Chloro-thiophene-2-carboxylic acid (3-{4-[N-(2-methoxy-ethyl)-N-methyl-carbamimidoyl]-phenyl}-isoxazol-5-ylmethyl)-methyl-amide]",≥ 500 nM
6,"C[C@H](NC(=O)c1ccc(Cl)s1)c1cc(-c2ccc(C3=NCCN3C)cc2)no1 [Example 54, (S)-5-Chloro-thiophene-2-carboxylic acid (1-{3-[4-(1-methyl-4,5-dihydro-1H-imidazol-2-yl)-phenyl]-isoxazol-5-yl}-ethyl)-amide]",≥ 500 nM
7,"Cc1ccc(C2=NOC(CNC(=O)c3ccc(Cl)s3)C2)cc1 (stereo not drawn) [Example 147, 5-Chloro-thiophene-2-carboxylic acid (3-p-tolyl-4,5-dihydro-isoxazol-5-ylmethyl)-amide]",≥ 500 nM
8,"CN(C)C(=N)c1ccc(C2=NOC(CNC(=O)c3ccc(Cl)s3)C2)c(N2CCCC2)c1 (stereo not drawn) [Example 78, 5-Chloro-thiophene-2-carboxylic acid {3-[4-(N,N-dimethyl-carbamimidoyl)-2-pyrrolidin-1-yl-phenyl]-4,5-dihydro-isoxazol-5-ylmethyl}-amide]",100 to 500 nM
9,"CN1CCN=C1c1ccc(-c2cc(CNC(=O)c3ccc(Cl)s3)ccc2F)cc1 [Example 378, 5-Chloro-N-((3-(4-(1-methyl-4,5-dihydro-1H-imidazol-2-yl)phenyl)-4-fluorophenyl)methyl)thiophene-2-carboxamide]",100 to 500 nM
10,"CCCN(C)C(=N)c1ccc(-c2cc(CN(C)C(=O)c3ccc(Cl)s3)on2)cc1 [Example 43, 5-Chloro-thiophene-2-carboxylic acid methyl-{3-[4-(N-methyl-N-propyl-carbamimidoyl)-phenyl]-isoxazol-5-ylmethyl}-amide]",≥ 500 nM
11,"Nc1ccccc1-c1ccc(C2=NOC(CNC(=O)c3ccc(Cl)s3)C2)cc1 (stereo not drawn) [Example 186, 5-Chloro-thiophene-2-carboxylic acid [3-(2′-amino-biphenyl-4-yl)-4,5-dihydro-isoxazol-5-ylmethyl]-amide]",100 to 500 nM
12,"COC(=O)c1ccc(-c2cc(CNC(=O)c3ccc(Cl)s3)on2)cc1 [Example 157, 4-(5-{[(5-Chloro-thiophene-2-carbonyl)-amino]-methyl}-isoxazol-3-yl)-benzoic acid methyl ester]",≥ 500 nM

# Other lines, results leading:
row,IC50,Structure (SMILES)
1,≤ 100 nM,"CSc1cc(C2=NCCN2C)ccc1-c1cc(CNC(=O)c2ccc(Cl)s2)on1 [Example 141, 5-Chloro-thiophene-2-carboxylic acid {3-[4-(1-methyl-4,5-dihydro-1H-imidazol-2-yl)-2-methylsulfanyl-phenyl]-isoxazol-5-ylmethyl}-amide]"
2,≤ 100 nM,"O=C(NCC1CC(c2ccc(Nc3cccnc3)cc2)=NO1)c1ccc(Cl)s1 (stereo not drawn) [Example 225, 5-Chloro-thiophene-2-carboxylic acid {3-[4-(pyridin-3-ylamino)-phenyl]-4,5-dihydro-isoxazol-5-ylmethyl}-amide]"
3,≤ 100 nM,"CC(C)Oc1cc(C2=NCCN2C)ccc1C1=NOC(CNC(=O)c2ccc(Cl)s2)C1 (stereo not drawn) [Example 110, 5-Chloro-thiophene-2-carboxylic acid {3-[2-isopropoxy-4-(1-methyl-4,5-dihydro-1H-imidazol-2-yl)-phenyl]-4,5-dihydro-isoxazol-5-ylmethyl}-amide]"
4,≤ 100 nM,"Cc1ccc(=O)n(-c2ccc(C3=NOC(CNC(=O)c4ccc(Cl)s4)C3)cc2)c1 (stereo not drawn) [Example 285, 5-Chloro-N-((3-(4-(5-methyl-2-oxopyridin-1(2H)-yl)phenyl)-4,5-dihydroisoxazol-5-yl)methyl)thiophene-2-carboxamide]"
5,≤ 100 nM,"N=C(c1ccc(-n2cc(CNC(=O)c3ccc(Cl)s3)nn2)c(F)c1)N1CCCC1 [Example 322, 5-Chloro-N-((1-(2-fluoro-4-(imino(pyrrolidin-1-yl)methyl)phenyl)-1H-1,2,3-triazol-4-yl)methyl)thiophene-2-carboxamide]"
6,≤ 100 nM,"N=C(c1ccc(-c2cc(CNC(=O)c3ccc(Cl)s3)on2)c(N2CCOCC2)c1)N1CCCC1 [Example 100, 5-Chloro-thiophene-2-carboxylic acid {3-[4-(imino-pyrrolidin-1-yl-methyl)-2-morpholin-4-yl-phenyl]-isoxazol-5-ylmethyl}-amide]"
7,≤ 100 nM,"O=C(NCc1cn(-c2ccc(-n3ccccc3=O)nc2)nn1)c1ccc(Cl)s1 [Example 389, 5-Chloro-N-((1-(6-(2-oxopyridin-1(2H)-yl)pyridin-3-yl)-1H-1,2,3-triazol-4-yl)methyl)thiophene-2-carboxamide]"
8,≤ 100 nM,"CC(C)Oc1cc(C(=N)N2CCCCC2)ccc1-c1cc(CNC(=O)c2ccc(Cl)s2)on1 [Example 129, 5-Chloro-thiophene-2-carboxylic acid {3-[4-(imino-piperidin-1-yl-methyl)-2-isopropoxy-phenyl]-isoxazol-5-ylmethyl}-amide]"
9,≤ 100 nM,"O=C(NCC1CC(c2ccc(N3CCOCC3=O)cc2)=NO1)c1ccc(Cl)s1 (stereo not drawn) [Example 243, 5-Chloro-thiophene-2-carboxylic acid {3-[4-(3-oxo-morpholin-4-yl)-phenyl]-4,5-dihydro-isoxazol-5-ylmethyl}-amide]"
10,≤ 100 nM,"CN1CCN=C1c1ccc(-c2cc(CNC(=O)c3ccc(Cl)s3)on2)cc1 [Example 22, 5-Chloro-thiophene-2-carboxylic acid {3-[4-(1-methyl-4,5-dihydro-1H-imidazol-2-yl)-phenyl]-isoxazol-5-ylmethyl}-amide]"
11,≤ 100 nM,"O=C(NCc1cn(-c2ccc(-n3ccccc3=O)cc2F)nn1)c1ccc(Cl)s1 [Example 305, 5-Chloro-N-((1-(2-fluoro-4-(2-oxopyridin-1(2H)-yl)phenyl)-1H-1,2,3-triazol-4-yl)methyl)thiophene-2-carboxamide]"
12,≤ 100 nM,"CN(C)c1cc(C(=N)N2CCCCC2)ccc1C1=NOC(CNC(=O)c2ccc(Cl)s2)C1 (stereo not drawn) [Example 77, 5-Chloro-thiophene-2-carboxylic acid {3-[2-dimethylamino-4-(imino-piperidin-1-yl-methyl)-phenyl]-4,5-dihydro-isoxazol-5-ylmethyl}-amide]"
